The text below walks through data of patent US8513258B2, “Cinnamoyl-piperazine derivatives and their use as par-1 antagonists” (Pierre Fabre Medicament, priority 2006, dated 2013).

The target in one assay is T1, PAR-1 receptor (Cricetulus griseus, UniProt A0A8C2QJ57).
T1 construct: Chinese hamster ovarian (CHO) cells constituently express PAR-1 receptor; endogenous in cells; host or cells: CHO cells
T1 sequence (A0A8C2QJ57 22-428): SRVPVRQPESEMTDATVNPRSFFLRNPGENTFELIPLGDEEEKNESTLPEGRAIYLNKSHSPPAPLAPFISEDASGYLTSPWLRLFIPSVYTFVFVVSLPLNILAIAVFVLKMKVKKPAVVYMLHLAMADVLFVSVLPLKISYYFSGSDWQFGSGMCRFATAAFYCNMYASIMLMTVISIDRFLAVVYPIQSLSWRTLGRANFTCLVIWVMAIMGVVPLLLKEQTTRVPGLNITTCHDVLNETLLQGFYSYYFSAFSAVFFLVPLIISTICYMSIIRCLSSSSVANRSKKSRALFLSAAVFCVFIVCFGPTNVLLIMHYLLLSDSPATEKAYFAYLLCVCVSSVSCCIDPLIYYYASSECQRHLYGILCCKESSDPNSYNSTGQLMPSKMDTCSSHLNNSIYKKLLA
Nature of the assay: Antagonism of SFLLR-induced calcium release in CHO cells (FLIPR, Fluo-3AM). The format is cell-based, Chinese hamster. To be noted: agonist SFLLR-NH2, Arunlakshana and Schild method from EC50 shifts at three antagonist concentrations. The method, then:
In a variety of cell types, activation of PAR-1 receptors by the SFLLR peptide (a selective PAR-1 agonist) triggers an intracellular signal cascade leading to the release of calcium by the endoplasmic reticulum. Chinese hamster ovarian (CHO) cells constituently express PAR-1 receptor. In this cell line, the release of calcium consecutive to receptor activation by SFLLR is measured by a fluorometry technique (fluorometric imaging plate reader, or FLIPR) using a selective probe for calcium (Fluo-3AM). The emission of fluorescence is pharmacologically proportional to the efficiency of the PAR-1 agonist and to its concentration.
Culture medium: Ham's F-12 (Ham, R. G., Proc. Nat. Acad. Sci. 1965, 53: 288) supplemented with 10% fetal calf serum and […].
Fluorescent probe: Fluo-3AM (4 μM; Teflabs, Austin, Tex., USA)
Agonist: SFLLR-NH2 (Serine, phenylalanine, leucine, leucine, arginine).
Methods: CHO cells are inoculated in 96-well plates (60,000 cells per well) in the presence of 200 μl of culture medium for 24 hours. The cells are incubated with the calcium fluorescent probe for 1 hour at 37° C. The cells are then washed 10 minutes before the signal is measured. PAR-1 antagonist is then injected (0.01 μM to 10 μM). The plates are placed in the FLIPR (Molecular Devices, UK) to measure calcium fluorescence at two wavelengths (488 nm and 540 nm: Sullivan et al., Calcium Signaling Protocols 1999, 125-136). Measurements are taken for 5 min before the antagonist is added and for 10 min following its administration. Maximum fluorescence minus baseline fluorescence is measured in 4 different wells. The test is carried out in duplicate. Under these conditions, the derivatives of the present invention were identified as PAR-1 receptor antagonists (antagonism>60% of the calcium signal at 10 μM). The dose-response curves (0.01 μM to 32 μM) obtained with the SFLLR agonist allowed determination of the effective concentration inducing 50% of the maximum effect (EC50). The strengths (pA2) of some of the PAR-1 antagonists described in the present invention were calculated using the method of Arunlakshana and Schild (Brit. J. Pharmacol., 1959, 14: 48-58) from the EC50 shifts observed at three concentrations.
For `O=C(C=Cc1c(F)cccc1F)N1CCN(Cc2ccc(F)c(F)c2)CC1` [Example 8, 1-[4-(3,4-Difluoro-benzyl)-piperazin-1-yl]-3-(2,6-difluoro-phenyl)-propenone], the pA2 came to 6.32.

In the case of `O=C(C=Cc1ccccc1Br)N1CCN(Cc2ccc(F)cc2)CC1` [Example 3, 3-(2-Bromo-phenyl)-1-[4-(4-fluoro-benzyl)-piperazin-1-yl]-propenone], the pA2 is on record as 6.36.

In the case of `O=C(C=Cc1ccccc1F)N1CCN(Cc2ccc(F)cc2)CC1` [Example 2, 1-[4-(4-Fluoro-benzyl)-piperazin-1-yl]-3-(2-fluoro-phenyl)-propenone], the pA2 is given as 6.50.

As for `Cc1cccc(CN2CCN(C(=O)C=Cc3c(F)cccc3F)CC2)c1` [Example 10, 3-(2,6-Difluoro-phenyl)-1-[4-(3-methyl-benzyl)-piperazin-1-yl]-propenone], the pA2 is 6.46.

Turning to `O=C(C=Cc1ccccc1Cl)N1CCN(Cc2ccccc2F)CC1` [Example 15, 3-(2-Chloro-phenyl)-1-[4-(2-fluoro-benzyl)-piperazin-1-yl]-propenone], the pA2 turned out to be 6.39.

`O=C(C=Cc1ccccc1[N+](=O)[O-])N1CCN(Cc2ccc(F)cc2)CC1` [Example 29, 1-[4-(4-Fluoro-benzyl)-piperazin-1-yl]-3-(2-nitro-phenyl)-propenone]: the pA2 is reported as 6.98.

For the molecule `Cc1ccc(CN2CCN(C(=O)C=Cc3ccccc3Cl)CC2)cc1` [Example 4, 3-(2-Chloro-phenyl)-1-[4-(4-methyl-benzyl)-piperazin-1-yl]-propenone], the pA2 is recorded as 6.05.

The same assay, now with this note: agonist SFLLR-NH2, Arunlakshana and Schild method from EC50 shifts at three antagonist concentrations, read-out: pA2 (converted).
`O=C(/C=C/c1ccccc1Cl)N1CCN(CC2CCCCC2)CC1` [Example 28, 3-(2-Chloro-phenyl)-1-(4-cyclohexylmethyl-piperazin-1-yl)-]: the Kb was 759 nM.

With `O=C(/C=C/c1ccccc1[N+](=O)[O-])N1CCN(CC2CCCCC2)CC1` [Example 25, 1-(4-Cyclohexylmethyl-piperazin-1-yl)-3-(2-nitro-phenyl)-propenone], the Kb is 166 nM.

With `O=C(/C=C/c1ccccc1Cl)N1CCN(Cc2ccc(F)cc2)CC1` [Example 1, 3-(2-Chloro-phenyl)-1-[4-(4-fluoro-benzyl)-piperazin-1-yl]-propenone], the Kb was 380 nM.
